{"source": "patent US8846880B2", "about": "“Synthetic analogues of phosphatidyl-myo-inositol mannosides with an inhibitory activity of the inflammatory response” (Centre National de la Recherche Scientifique—CNRS—, priority 2008, dated 2014)", "key": {"[1]": {"tested_on": "KC", "experiment": "KC in bronchoalveolar lavage fluid after intranasal LPS (ELISA)", "format": "in vivo", "conditions": "24 hours after intranasal 1 μg LPS, coadministration 50 μg/mouse (FIG. 10)", "protocol": "(§1) C57BL/6 mice received the vehicle alone (saline with 1.25% DMSO) or LPS (1 μg per mouse) from Escherichia coli (serotype […]; Sigma, St Louis, Mo., USA) in the absence or in the presence of PIM1 (SFPIM135) or of isoPIM1-2C16 (SFPIM91) (50 μg/mouse), applied by nasal instillation in a volume of 40 μl under light anesthesia with ketamine-xylazine.\n(§2) The BAL fluid is collected by canulating the trachea and washing the lungs four times with 0.5 ml of cold PBS. After centrifugation at 400×g for 10 min at 4° C., the supernatant from the first lavage is stored at −70° C. for the cytokine analysis. Pools of cell pellets are counted with Trypan blue (Sigma) in a hemocytometer cell. For differential counting, the cells are stained with Diff-Quik Staining (Merz & Dade AG., Dudingen, Switzerland). Two times one hundred cells are counted.\n(§3) The TNF and KC concentrations were evaluated by enzyme-linked immunosorbent assay (ELISA) in accordance with the instructions of the manufacturer (R&D Duoset, Minneapolis, Mo.).\nNeutrophil recruitment depends on various factors, including chemokine KC, even though it is not critically dependent on TNF [23]. In FIG. 10, the treated mice are sacrificed 24 hours after the intranasal application of 1 μg of LPS and the bronchoalveolar fluid is analyzed in order to determine the chemokine KC content. […]"}, "[2]": {"tested_on": "C57BL/6 mice", "experiment": "Inflammatory cell recruitment in bronchoalveolar lavage after intranasal LPS", "format": "in vivo, mouse", "protocol": "as §1, §2"}, "[3]": {"tested_on": "KC", "experiment": "Chemokine KC production by LPS-stimulated macrophages (ELISA)", "format": "cell-based, mouse", "conditions": "10 μg/ml (FIG. 7)", "protocol": "(§4) Murine bone marrow cells were obtained from femurs of wild-type mouse lines. The cells obtained were cultured (10^6/ml) for 7 days in DMEM medium (Dulbecco's modified Eagle's medium) supplemented with 20% of horse serum and 30% of L929 cell-conditioned medium. Three days after renewal of the medium, the cell preparation comprises a homogeneous population of macrophages.\n(§5) The macrophages derived from the bone marrow of wild-type mice were cultured on 96-well culture plates in the proportion of 10^5 cells per well, and were then stimulated with LPS (100 ng/ml, Escherichia. coli, serotype O111:B4, Sigma) with or without PIM analog (1-10 μg/ml). All the freeze-dried PIM analog preparations used are solubilized in DMSO and added to the cultures at a noncytotoxic maximum final concentration of 1%.\n(§6) After stimulation for 24 hours, the culture supernatants were collected and analyzed for their content of TNF-α, IL-6, IL-12p40 and KC cytokines by ELISA (Duoset, R&D) and for their nitrite content by means of the Griess reaction."}, "[4]": {"tested_on": "IL-12p40", "experiment": "IL-12p40 secretion by LPS-stimulated primary macrophages (ELISA)", "format": "cell-based, mouse", "protocol": "as §4, §5, §6\n(§7) The macrophages derived from the bone marrow of wild-type mice were cultured on 96-well culture plates in a proportion of 10^5 cells per well, and then stimulated with LPS (100 ng/ml, Escherichia coli, serotype […], Sigma) with isoPIM1C16C18 (SFPIM219) (1-10 μg/ml) or a DMSO control. The preparation of freeze-dried SFPIM219 which is used is solubilized in DMSO and added to the cultures at a noncytotoxic maximum final concentration of 1%.\n(§8) After stimulation for 24 hours, the culture supernatents were collected and analyzed for their content of cytokines TNF-α or IL-12p40 by ELISA (R&D Duoset, Minneapolis, Mo.). The results correspond to the mean±SD of n=2 mice per genotype.\n(§9) The macrophages derived from the bone marrow of wild-type mice were cultured on 96-well culture plates in a proportion of 10^5 cells per well, and then stimulated with LPS (100 ng/ml, Escherichia coli, serotype O111:B4, Sigma) with PIM1 (SFPIM145), isoPIM1C16C18 (SFPIM219) or the compounds PIM-2-mimNCOCF3 (SFPIM324 t2) and PIM-2-mimNH(SFPIM324 t8) (titrated at 1, 3, 10, 30 μg/ml) or DMSO controls. The freeze-dried SFPIM145, SFPIM219, SFPIM324 t2 and SFPIM324 t8 preparations that were used are solubilized in DMSO and added to the cultures at a noncytotoxic maximum final concentration of 1%."}, "[5]": {"tested_on": "IL-6", "experiment": "IL-6 expression by primary macrophages stimulated with LPS with or without IFNγ (ELISA)", "format": "cell-based, mouse", "conditions": "LPS in the presence or absence of interferon-γ, 10 μg/ml (FIG. 5)", "protocol": "as §4, §5, §6"}, "[6]": {"tested_on": "macrophages", "experiment": "MTT cytotoxicity / cell viability assay on the same macrophages", "format": "cell-based, mouse"}, "[7]": {"tested_on": "TNF-α", "experiment": "TNF-α secretion by LPS-stimulated bone-marrow-derived primary macrophages (ELISA)", "format": "cell-based, mouse", "conditions": "LPS 100 ng/ml, 24 hours", "protocol": "as §4, §5, §6, §7, §8, §9"}, "[8]": {"tested_on": "inflammatory cytokines and chemokines", "experiment": "Additional experiments: inflammatory cytokines and chemokines in lungs exposed to endotoxins", "format": "in vivo"}, "[9]": {"tested_on": "C57BL/6 mice", "experiment": "In vivo model of respiratory distress: Penh by noninvasive plethysmography after intranasal LPS", "parameters": "species or system mouse", "protocol": "as §1\nThe resistance of the respiratory tracts was evaluated by noninvasive plethysmography over a period of 3 hours after the application of LPS. Awake mice were placed in plethysmography chambers (EMKA Technologies, Paris, France). The increase in respiratory pause (Penh), as measurement of respiratory discomfort, was recorded and analyzed using the Datanalyst Software (EMKA Technologies, Paris, France), and expressed as mean±SEM of Penh of n=2-3 individual mice per group.\nTNF is essential for LPS-induced acute respiratory dysfunction, as has been shown in TNF-deficient mice. In order to determine the potential in vivo activity of PIM1 (SFPIM135) and isoPIM1-2C16 (SFPIM91), they were tested for their inhibitory activity in a murine model of acute pulmonary inflammation and respiratory distress induced by intranasal application of LPS (1 μg/mouse).\nC57BL/6 mice received an intranasal application of 1 μg of LPS, and Penh was recorded for 200 minutes using noninvasive plethysmography. […]"}, "[10]": {"tested_on": "TNF", "experiment": "TNF in bronchoalveolar lavage fluid after intranasal LPS (ELISA)", "format": "in vivo", "conditions": "coadministration 50 μg/mouse (FIG. 11)", "protocol": "as §1, §2, §3"}, "[11]": {"conditions": "titrated at 1, 3, 10, 30 μg/ml (FIG. 15)"}}, "data": [{"compound": "1-O-α-D-mannopyranosyl-2-O—[((S)-2,3-dipalmitoyloxy-propyl)phosphoryl]-D-myo-inositol [isoPIM1-2C16]", "values": [{"measurement": "secretion of KC in the bronchoalveolar space", "setting": "[1]", "result": "greatly reduced"}, {"measurement": "number of inflammatory cells detected in the BAL", "setting": "[2]; 18 hours after application of LPS, 50 μg/mouse intranasal (FIG. 9)", "result": "partially reduced"}, {"measurement": "reduction in the number of neutrophils", "setting": "[2]; BAL, observed in 2 mice out of 3, 50 μg/mouse intranasal", "result": "≤ 70", "unit": "%"}, {"measurement": "production of chemokine KC", "setting": "[3]", "result": "more strongly"}, {"measurement": "IL-12p40 secretion in response to LPS", "setting": "[4]; 1 μg/ml (FIG. 6)", "result": "inhibition"}, {"measurement": "expression of IL-6 by the macrophages", "setting": "[5]", "result": "also inhibited"}, {"measurement": "cytotoxicity (MTT)", "setting": "[6]; titrated at 1, 3 and 10 μg/ml (FIG. 4)", "result": "absence of cytotoxicity"}, {"measurement": "TNF-α synthesis induced in LPS-stimulated macrophages", "setting": "[7]; titrated at 1, 3 and 10 μg/ml (FIG. 3)", "result": "strongly inhibits"}, {"measurement": "expression of several other inflammatory cytokines and chemokines in lungs exposed to endotoxins", "setting": "[8]", "result": "decrease in expression"}, {"measurement": "enhancement of Penh induced by LPS", "setting": "[9]; 50 μg/mouse with LPS 1 μg/mouse, nasal instillation (FIG. 8)", "result": "even more pronounced"}, {"measurement": "pulmonary inflammation and resistance of the respiratory tracts in response to local endotoxins", "setting": "[9]; summary of the in vivo experiments", "result": "marked inhibition"}, {"measurement": "release of TNF in the bronchoalveolar space", "setting": "[10]", "result": "more strongly"}]}, {"compound": "CCCCCCCCCCCCCCCCCC(=O)OC[C@@H](COP(=O)(O)OC1C(O[C@H]2O[C@H](CO)[C@@H](O)[C@H](O)[C@@H]2O)CN(C(=O)C(F)(F)F)CC1O[C@H]1O[C@H](CO)[C@@H](O)[C@H](O)[C@@H]1O)OC(=O)CCCCCCCCCCCCCCC", "note": "(stereo partly shown) [PIM-2-mimNCOCF3]", "values": [{"measurement": "IL-12p40 secretion in response to LPS", "setting": "[4]; 10 μg/ml (FIG. 17)", "result": "virtually abolished"}, {"measurement": "TNF secretion", "setting": "[7]; [11]", "result": "strongly inhibit"}]}, {"compound": "CCCCCCCCCCCCCCCCCC(=O)OC[C@@H](COP(=O)(O)O[C@@H]1[C@@H](O[C@H]2O[C@H](CO)[C@@H](O)[C@H](O)[C@@H]2O)CNC[C@H]1O[C@H]1O[C@H](CO)[C@@H](O)[C@H](O)[C@@H]1O)OC(=O)CCCCCCCCCCCCCCC", "note": "[PIM-2-mimNH]", "values": [{"measurement": "IL-12p40 secretion in response to LPS", "setting": "[4]; 10 μg/ml (FIG. 17)", "result": "partially inhibit"}, {"measurement": "cytotoxicity (MTT cell viability)", "setting": "[6]; at the highest concentration (FIG. 16)", "result": "a certain cytotoxicity"}, {"measurement": "TNF secretion", "setting": "[7]; [11]", "result": "inhibit less strongly"}]}, {"compound": "CCCCCCCCCCCCCCCCCC(=O)OC[C@H](COP(=O)(O)O[C@@H]1[C@H](O)[C@@H](O)[C@H](O)[C@@H](O)[C@@H]1OC1O[C@H](CO)[C@@H](O)[C@H](O)[C@@H]1O)OC(=O)CCCCCCCCCCCCCCC", "note": "(stereo partly drawn) [isoPIM1-C16C18, 1-O-α-D-mannopyranosyl-2-O—[((S)-2-O-hexadecanoyl-3-O-octadecanoylpropyl)phosphoryl]-D-myo-inositol]", "values": [{"measurement": "IL-12p40 secretion in response to LPS", "setting": "[4]; 1 μg/ml (FIG. 14)", "result": "greatly inhibited"}, {"measurement": "IL-12p40 secretion in response to LPS", "setting": "[4]; 10 μg/ml (FIG. 17)", "result": "virtually abolished"}, {"measurement": "cytotoxicity on macrophages (MTT)", "setting": "[6]; titrated at 1, 3 and 10 μg/ml (FIG. 13)", "result": "lack of cytotoxicity"}, {"measurement": "TNF secretion", "setting": "[7]; 1-10 μg/ml (FIG. 12)", "result": "strongly inhibits"}, {"measurement": "TNF secretion", "setting": "[7]; [11]", "result": "strongly inhibit"}]}]}
